The nature of data set [1]: Single dose oral PK study in male Sprague Dawley rats (plasma by LC-MS/MS). Conditions: mean; for AUC: read-out: Oral PK Parameters AUC, Prodrug. The format is in vivo. As to the method: (§1) We describe here PK results of prodrugs of PRX-002 (−) or (+) isomers. All doses of prodrugs were administered such that they were equivalent to 5 mg/kg of PRX-002 (−) or (+) for oral studies and 2 mg/kg PRX-002 (−) or (+) for intravenous studies in male Sprague-Dawley (MSD) rats. Higher doses of up to 10 or 15 mg/kg [again equivalent to PRX-002 (−)] were used in some studies (as specified)]. Formulation preparation, dose administration and time of sample collection was as follows.
Test item was weighed [5 mg equivalent dose of PRX-002 for prodrugs] and transferred to a graduated tube. Then 10 μL of Tween 80 was added and vortexed mixed until the test item was completely mixed. Small volume of 0.5% (w/v) carboxymethylcellulose in water solution was then added dropwise with continuous vortex mixing until a uniform suspension was obtained. The final volume was then made up to 10 mL with 0.5% (w/v) carboxymethylcellulose in water with final strength of 0.5 mg/mL. […] This formulation was freshly prepared before the administration to animals.
(§2) Adult male Sprague Dawley Rats aged 8-10 weeks were used for the study. Fasted animals were administered test item by oral route with a dose of 5 mg/kg body weight at dose volume of 10 mL/kg body weight. Under mild isoflurane anesthesia, blood specimens were collected by retro-orbital puncture method using capillary tubes into pre-labeled tubes containing anticoagulant (K2EDTA-2 mg/mL blood) during the next 24 hours of post dose as mentioned in below table. For blood sampling at multiple time points, right and left eyes were used alternatively for blood collection. Collected blood specimens were centrifuged at 4000 rpm, 4° C. for 10 minutes and plasma were separated and stored at −80° C. until analysis.
Blood was collected as outlined in Table 39.1 (oral).
Test item PRX-P4-003 was weighed and transferred to a graduated tube. Then 12.42 μL of Tween 80 was added and vortexed mixed until the test item was completely mixed. Small volume of 0.5% (w/v) Carboxymethylcellulose in water solution was then added dropwise with continuous vortex mixing until a uniform suspension was obtained. The final volume was then made up to 12.42 mL with 0.5% (w/v) Carboxymethylcellulose in water with final strength of 1.0 mgA/mL. […] This formulation was freshly prepared before the administration to animals.
as §2, with “with a PRX-P4-003” for “test item”, “10” for “5”
Test item PRX-P5-006 was weighed and transferred to a graduated tube. Then 10 μL of Tween 80 was added and vortexed mixed until the test item was completely mixed. Small volume of 0.5% (w/v) Carboxymethylcellulose in water solution was then added dropwise with continuous vortex mixing until a uniform suspension was obtained. The final volume was then made up to 10 mL with 0.5% (w/v) Carboxymethylcellulose in water with final strength of 3.97 mg/mL. […] This formulation was freshly prepared before the administration to animals.
Adult male Sprague Dawley Rats aged 8-10 weeks were used for the study. Fasted animals were administered with a PRX-P5-006 by oral route with a dose of 15 mg/kg body weight at dose volume of 10 mL/kg body weight. […]

The nature of data set [2]: Single dose intravenous PK study in male Sprague Dawley rats (plasma by LC-MS/MS). Format: in vivo. Conditions: male, Sprague Dawley, rat; IV 2 mg/kg [equivalent to PRX-002 (−)], analyte: prodrug in plasma, mean; read-out: IV PK Parameters Tmax, Prodrug. On the procedure: as §1
as §2, with “study. Animals” for “study. Fasted animals”, “administered the” for “administered”, “by Intravenous bolus” for “by oral”, “of 2” for “of 5”, “of 5.0” for “of 10”
Blood was collected as outlined in Table 39.2 (IV).
Test item PRX-P4-003 was weighed and transferred to a graduated tube. Then 600 μL of PEG 400 (v/v) was added and vortex mixed thoroughly until the test item was completely dissolved. Then 1.800 mL of Hydroxypropyl-β-cyclodextrin (HPβCD, 50% w/v) was added and vortex mixed thoroughly. The final volume was then made up to 3.600 mL with sterile water for injection (SWFI, v/v) with final formulation strength of 5.16 mgA/mL. […] This formulation was freshly prepared before the administration to animals.
as §2, with “study. Animals” for “study. Fasted animals”, “administered with a PRX-P4-003” for “administered test item”, “by Intravenous bolus” for “by oral”, “of 10” for “of 5”, “of 5” for “of 10”
Test item PRX-P5-006 was weighed and transferred to a graduated tube. Then 500 μL of DMSO (v/v) was added vortex mixed thoroughly until the test item was completely dissolved. Then 4000 μL of Hydroxypropyl-β-cyclodextrin (HPβCD, 50% w/v) was added and vortex mixed thoroughly. Then 2500 μL of PEG 400 (v/v) was added and vortex mixed thoroughly. The final volume was then made up to 10000 μL with sterile water for injection (SWFI, v/v) with final formulation strength of 3.97 mg/mL. […] This formulation was freshly prepared before the administration to animals.
as §2, with “Animals” for “Fasted animals”, “with a PRX-P5-006” for “test item”, “Intravenous bolus” for “oral”, “15” for “5”
The plasma concentrations of fencamfamine were measured by LC-MS/MS over time. […] The release of fencamfamine from the prodrugs varied depending on the chain length of the fatty acid linkers attached to fencamfamine. […]

Setting [3] is: male, Sprague Dawley, rat, in vivo, po, 5 mg/kg, oral 5 mg/kg [equivalent to PRX-002 (−)], analyte: prodrug in plasma, read-out: Oral PK Parameters Cmax, Prodrug.
The mark [4] stands for this setting: male, Sprague Dawley, rat, in vivo, oral 5 mg/kg [equivalent to PRX-002 (−)], analyte: prodrug in plasma.
The mark [5] stands for this setting: male, Sprague Dawley, rat, in vivo, oral 5 mg/kg [equivalent to PRX-002 (−)], analyte: prodrug in plasma, read-out: Oral PK Parameters Tmax, Prodrug.

Each structure is given as a SMILES string. Read-outs that look alike come from different tables or passages of the source.

As to `CCN(C(=O)[C@@H](N)Cc1ccccc1)C1C2CCC(C2)C1c1ccccc1` (stereo partly drawn) [PRX-P1-013, N-Phenylalanyl-(−)-N-ethyl-3-phenylbicyclo[2.2.1]heptan-2-amine], in data set [1] (setting [3]), the Cmax – broadly, the maximum level reached in the sampled fluid or tissue – is 307 ± 49.6 ng/mL. Moreover, the AUC – broadly, concentration integrated over time – in data set [1] (setting [4]) was 678 ± 101 ng·h/mL. Moreover, the Tmax (in general, the time at which the peak concentration occurs) in data set [1] (setting [5]) amounted to 42 ± 18 min.

With `CCCCCCCCCC(=O)OCOC(=O)N(CC)C1C2CCC(C2)C1c1ccccc1` (single isomer, unassigned) [PRX-P4-002, N-(Decanoyloxymethoxycarbonyl)-(−)-N-ethyl-3-phenylbicyclo[2.2.1]heptan-2-amine], the Tmax in data set [1] (setting [5]) stood at 0 min; in data set [2], 0 h.

Consider `CCN(C(=O)[C@@H](N)CCCCN)C1C2CCC(C2)C1c1ccccc1` (stereo partly drawn) [PRX-P1-005, N-Lysyl-(−)-N-ethyl-3-phenylbicyclo[2.2.1]heptan-2-amine], for which the Cmax in data set [1] (setting [3]) worked out at 32 ± 7.5 ng/mL. Further, the AUC in data set [1] (setting [4]) was found to be 42 ± 9.4 ng·h/mL. In data set [1] (setting [5]), the Tmax turned out to be 30 min.

Consider `CCN(C(=O)[C@@H](NC(=O)[C@@H](N)C(C)C)C(C)C)C1C2CCC(C2)C1c1ccccc1` (single isomer, unassigned) [PRX-P6-011, N-(Valyl-valyl)-(+)-N-ethyl-3-phenylbicyclo[2.2.1]heptan-2-amine], for which, in data set [1] (PRX-P6-011 oral 5 mg/kg), the “AUC% extrap of PRX-P6-011” value was 23.190 ± 3.6640%. In addition, the Cmax amounted to 82.2 ± 30.9 ng/mL in data set [1] (setting [3]) and 82.2 ± 30.9 ng/mL in data set [1] (male, Sprague-Dawley, rat, in vivo, po, 5 mg/kg, PRX-P6-011 oral 5 mg/kg, read-out: Cmax of PRX-P6-011). Further, the concentration at 0 h in data set [1] (male, Sprague Dawley, rat, in vivo, PRX-P6-011 oral 5 mg/kg b.w., 0.00 h, read-out: Plasma concentrations of PRX-P6-011) worked out at 0 ng/mL. Besides, the concentration at 0.08 h in data set [1] (male, Sprague Dawley, rat, in vivo, PRX-P6-011 oral 5 mg/kg b.w., 0.08 h, read-out: Plasma concentrations of PRX-P6-011) was 75.9 ng/mL. Further, in data set [1] (male, Sprague Dawley, rat, in vivo, PRX-P6-011 oral 5 mg/kg b.w., 4.00 h, read-out: Plasma concentrations of PRX-P6-011), the concentration at 4 h came out at 0 ng/mL. The concentration at 6 h in data set [1] (male, Sprague Dawley, rat, in vivo, PRX-P6-011 oral 5 mg/kg b.w., 6.00 h, read-out: Plasma concentrations of PRX-P6-011) is 0 ng/mL. Further, the concentration at 24 h in data set [1] (male, Sprague Dawley, rat, in vivo, PRX-P6-011 oral 5 mg/kg b.w., 24.00 h, read-out: Plasma concentrations of PRX-P6-011) came to 0 ng/mL. The AUC in data set [1] (setting [4]) stood at 44.2 ± 17.1 ng·h/mL. The Tmax was determined as 8.4 ± 6 min in data set [1] (setting [5]) and 8.22 ± 5.88 min in data set [1] (male, Sprague-Dawley, rat, in vivo, PRX-P6-011 oral 5 mg/kg, read-out: Tmax of PRX-P6-011). Further, in data set [1] (male, Sprague-Dawley, rat, in vivo, po, 5 mg/kg, PRX-P6-011 oral 5 mg/kg, read-out: AUCinf of PRX-P6-011), the AUC(0-inf) is 57.3 ± 21.3 ng·h/mL. Further, the AUC(0-t) in data set [1] (male, Sprague-Dawley, rat, in vivo, po, 5 mg/kg, PRX-P6-011 oral 5 mg/kg, read-out: AUClast of PRX-P6-011) was determined as 44.2 ± 17.1 ng·h/mL. Besides, the MRT last in data set [1] (male, Sprague-Dawley, rat, in vivo, po, 5 mg/kg, PRX-P6-011 oral 5 mg/kg, read-out: MRTlast of PRX-P6-011) turned out to be 34.5 ± 2.22 min. In addition, the half-life in data set [1] (male, Sprague-Dawley, rat, in vivo, po, 5 mg/kg, PRX-P6-011 oral 5 mg/kg, read-out: T1/2 of PRX-P6-011 (converted)) is 70.3 ± 12.7 min. Also, the concentration at 0.25 h in data set [1] (male, Sprague-Dawley, rat, in vivo, PRX-P6-011 oral 5 mg/kg b.w., 0.25 h, read-out: Plasma concentrations of PRX-P6-011) is 62.8 ng/mL. For the same compound, in data set [1] (male, Sprague-Dawley, rat, in vivo, PRX-P6-011 oral 5 mg/kg b.w., 0.50 h, read-out: Plasma concentrations of PRX-P6-011), the concentration at 0.5 h worked out at 20.8 ng/mL. Further, the concentration at 1 h in data set [1] (male, Sprague-Dawley, rat, in vivo, PRX-P6-011 oral 5 mg/kg b.w., 1.00 h, read-out: Plasma concentrations of PRX-P6-011) was 13 ng/mL. Also, the concentration at 2 h in data set [1] (male, Sprague-Dawley, rat, in vivo, PRX-P6-011 oral 5 mg/kg b.w., 2.00 h, read-out: Plasma concentrations of PRX-P6-011) came to 7.87 ng/mL.

Turning to `CCCCCCCCCC(=O)OC(C)OC(=O)N(CC)C1C2CCC(C2)C1c1ccccc1` (single isomer, unassigned) [PRX-P5-002, N-(1-Decanoyloxyethoxycarbonyl)-(−)-N-ethyl-3-phenylbicyclo[2.2.1]heptan-2-amine], the Tmax in data set [1] (setting [5]) was 0 min; in data set [2] it was 0 h.
